According to ChEMBL document CHEMBL1201862, “PubChem BioAssay data set” (2004):
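How tested: cells in 96-well plates exposed to compound for 48 hours at five concentrations. GI50: concentration for 50% inhibition of growth.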 Calls of active or inactive are those of the source. Rule as the data show it: active = GI50 up to about 1.1 µM and inactive = higher.

Key:
Experiment in all cases: growth of human tumour cells (NCI), 48 h
786-0 = tested on: 786-0
A549 = tested on: A549
ACHN = tested on: ACHN
BT-549 = tested on: BT-549
CAKI-1 = tested on: CAKI-1
CCRF-CEM = tested on: CCRF-CEM
COLO 205 = tested on: COLO 205
DU-145 = tested on: DU-145
EKVX = tested on: EKVX
HCC 2998 = tested on: HCC 2998
HCT-116 = tested on: HCT-116
HCT-15 = tested on: HCT-15
HL-60 = tested on: HL-60
HOP-62 = tested on: HOP-62
HT-29 = tested on: HT-29
Hs-578T = tested on: Hs-578T
IGROV-1 = tested on: IGROV-1
K562 = tested on: K562
KM12 = tested on: KM12
M14 = tested on: M14
MCF7 = tested on: MCF7
MDA-MB-231 = tested on: MDA-MB-231
MDA-MB-435 = tested on: MDA-MB-435
MDA-N = tested on: MDA-N
MOLT-4 = tested on: MOLT-4
NCI-H226 = tested on: NCI-H226
NCI-H23 = tested on: NCI-H23
NCI-H460 = tested on: NCI-H460
NCI-H522 = tested on: NCI-H522
NCI/ADR-RES = tested on: NCI/ADR-RES
OVCAR-3 = tested on: OVCAR-3
OVCAR-4 = tested on: OVCAR-4
OVCAR-8 = tested on: OVCAR-8
PC-3 = tested on: PC-3
RPMI-8226 = tested on: RPMI-8226
RXF 393 = tested on: RXF 393
SF-268 = tested on: SF-268
SF-295 = tested on: SF-295
SF-539 = tested on: SF-539
SK-MEL-28 = tested on: SK-MEL-28
SK-MEL-5 = tested on: SK-MEL-5
SK-OV-3 = tested on: SK-OV-3
SN12C = tested on: SN12C
SNB-19 = tested on: SNB-19
SNB-75 = tested on: SNB-75
SR = tested on: SR
SW-620 = tested on: SW-620
T47D = tested on: T47D
TK-10 = tested on: TK-10
U-251 = tested on: U-251
UACC-257 = tested on: UACC-257
UACC-62 = tested on: UACC-62
UO-31 = tested on: UO-31
A498 = tested on: A498
HOP-92 = tested on: HOP-92
Malme-3M = tested on: Malme-3M
OVCAR-5 = tested on: OVCAR-5
SK-MEL-2 = tested on: SK-MEL-2

COCCCN1C(=O)C2c3[nH]c4ccccc4c3C3CCC(C(C)(C)C)CC3C2C1=O (stereo not drawn) was tested, and the GI50 (786-0) was 22.7 µM (inactive), the GI50 (A549) was 32.6 µM (inactive) and the GI50 (ACHN) was 27.4 µM (inactive). For the same molecule, the GI50 (BT-549) was 20.5 µM (inactive), the GI50 (CAKI-1) was 29.5 µM (inactive) and the GI50 (CCRF-CEM) was 22.6 µM (inactive). For the same molecule, the GI50 (COLO 205) was > 10 µM (inactive), the GI50 (DU-145) was 58.9 µM (inactive) and the GI50 (EKVX) was 34.4 µM (inactive). The GI50 (HCC 2998) was 20.3 µM (inactive), the GI50 (HCT-116) was 19.8 µM (inactive) and the GI50 (HCT-15) was 19.8 µM. The GI50 (HL-60) was 23.4 µM (inactive), the GI50 (HOP-62) was 22.4 µM (inactive) and the GI50 (HT-29) was 15.3 µM (inactive). The GI50 (Hs-578T) was 32.1 µM (inactive), the GI50 (IGROV-1) was > 100 µM (inactive) and the GI50 (K562) was > 10 µM (inactive). For the same molecule, the GI50 (KM12) was 20.7 µM (inactive), the GI50 (M14) was 18.4 µM (inactive) and the GI50 (MCF7) was 20.6 µM (inactive). The GI50 (MDA-MB-231) was 21.7 µM (inactive), the GI50 (MDA-MB-435) was 29.7 µM (inactive) and the GI50 (MDA-N) was 35.6 µM (inactive). For the same molecule, the GI50 (MOLT-4) was 24.7 µM (inactive), the GI50 (NCI-H226) was 25.4 µM (inactive) and the GI50 (NCI-H23) was 27 µM (inactive). For the same molecule, the GI50 (NCI-H460) was 18.7 µM (inactive), the GI50 (NCI-H522) was 21.7 µM (inactive) and the GI50 (NCI/ADR-RES) was > 10 µM (inactive). The GI50 (OVCAR-3) was 17.4 µM (inactive), the GI50 (OVCAR-4) was 31.5 µM (inactive) and the GI50 (OVCAR-8) was 35.5 µM (inactive). The GI50 (PC-3) was 19.1 µM (inactive), the GI50 (RPMI-8226) was 22.6 µM (inactive) and the GI50 (RXF 393) was 21.3 µM (inactive). The GI50 (SF-268) was 43.7 µM (inactive), the GI50 (SF-295) was 24.1 µM (inactive) and the GI50 (SF-539) was 27.4 µM (inactive). For the same molecule, the GI50 (SK-MEL-28) was 38 µM (inactive), the GI50 (SK-MEL-5) was 27.4 µM (inactive) and the GI50 (SK-OV-3) was > 100 µM (inactive). The GI50 (SN12C) was 21.4 µM (inactive), the GI50 (SNB-19) was 33 µM (inactive) and the GI50 (SNB-75) was 47.6 µM (inactive). For the same molecule, the GI50 (SR) was 25.4 µM (inactive), the GI50 (SW-620) was 30.6 µM (inactive) and the GI50 (T47D) was 48.4 µM (inactive). For the same molecule, the GI50 (TK-10) was 59.3 µM (inactive), the GI50 (U-251) was 17.7 µM (inactive) and the GI50 (UACC-257) was 27.7 µM (inactive). The GI50 (UACC-62) was > 10 µM (inactive) and the GI50 (UO-31) was 54.3 µM (inactive).
For NS(=O)(=O)c1ccc(/N=N/c2ccc(O)c(C(=O)O)c2)cc1 [SALAZOSULFAMIDE], the GI50 (786-0) was > 100 µM (inactive), the GI50 (A498) was > 100 µM (inactive) and the GI50 (A549) was > 100 µM (inactive). For the same molecule, the GI50 (ACHN) was > 100 µM (inactive), the GI50 (BT-549) was > 100 µM (inactive) and the GI50 (CAKI-1) was > 100 µM (inactive). For the same molecule, the GI50 (COLO 205) was > 100 µM (inactive), the GI50 (DU-145) was > 100 µM (inactive) and the GI50 (EKVX) was > 100 µM (inactive). For the same molecule, the GI50 (HCC 2998) was > 100 µM (inactive), the GI50 (HCT-116) was > 100 µM (inactive) and the GI50 (HCT-15) was greater than 100 µM. The GI50 (HL-60) was 29.1 µM (inactive), the GI50 (HOP-62) was > 100 µM (inactive) and the GI50 (HOP-92) was > 100 µM (inactive). For the same molecule, the GI50 (HT-29) was > 100 µM (inactive), the GI50 (Hs-578T) was 23.6 µM (inactive) and the GI50 (IGROV-1) was > 100 µM (inactive). For the same molecule, the GI50 (K562) was > 100 µM (inactive), the GI50 (KM12) was > 100 µM (inactive) and the GI50 (M14) was > 100 µM (inactive). The GI50 (MCF7) was > 100 µM (inactive), the GI50 (MDA-MB-231) was > 100 µM (inactive) and the GI50 (MDA-MB-435) was > 100 µM (inactive). For the same molecule, the GI50 (MDA-N) was > 100 µM (inactive), the GI50 (MOLT-4) was > 100 µM (inactive) and the GI50 (Malme-3M) was 52.2 µM (inactive). The GI50 (NCI-H226) was > 100 µM (inactive), the GI50 (NCI-H23) was > 100 µM (inactive) and the GI50 (NCI-H460) was > 100 µM (inactive). The GI50 (NCI-H522) was 82.4 µM (inactive), the GI50 (NCI/ADR-RES) was > 100 µM (inactive) and the GI50 (OVCAR-3) was > 100 µM (inactive). The GI50 (OVCAR-4) was > 100 µM (inactive), the GI50 (OVCAR-5) was > 100 µM (inactive) and the GI50 (OVCAR-8) was > 100 µM (inactive). For the same molecule, the GI50 (PC-3) was > 100 µM (inactive), the GI50 (RPMI-8226) was > 100 µM (inactive) and the GI50 (RXF 393) was > 100 µM (inactive). For the same molecule, the GI50 (SF-268) was > 100 µM (inactive), the GI50 (SF-295) was > 100 µM (inactive) and the GI50 (SK-MEL-28) was > 100 µM (inactive). The GI50 (SK-MEL-2) was 20.7 µM (inactive), the GI50 (SK-MEL-5) was > 100 µM (inactive) and the GI50 (SK-OV-3) was > 100 µM (inactive). The GI50 (SN12C) was > 100 µM (inactive), the GI50 (SNB-19) was > 100 µM (inactive) and the GI50 (SNB-75) was 69 µM (inactive). The GI50 (SW-620) was > 100 µM (inactive), the GI50 (T47D) was > 100 µM (inactive) and the GI50 (TK-10) was > 100 µM (inactive). For the same molecule, the GI50 (U-251) was > 100 µM (inactive), the GI50 (UACC-257) was > 100 µM (inactive) and the GI50 (UACC-62) was > 100 µM (inactive). For the same molecule, the GI50 (UO-31) was > 100 µM (inactive).
